Counter-ions that a name gives are not always drawn.
Experiments:
[1] = test system: T cells in rVSV-ΔG-mCherry-infected PBMCs; assay: On-age and off-age scores from T-cell image embeddings; assay type: cell-based, human; conditions: T cells from older donors vs untreated controls
[2] = test system: rVSV-ΔG-mCherry-infected PBMCs
[3] = test system: rVSV-infected PBMCs from older donors; assay type: cell-based, human
[4] = test system: T cells in rVSV-ΔG-mCherry-infected PBMCs; assay type: cell-based, human
[5] = test system: rVSV-ΔG-mCherry-infected PBMCs from older donors; assay type: cell-based, human
[6] = test system: T cells in rVSV-ΔG-mCherry-infected PBMCs; assay type: cell-based, human; remark: listed apart in the source
[7] = test system: late stage COVID-19; conditions: cited from earlier work

| Compound | off-age effects (change orthogonal to age distances) [1] | on-age score (distance from young controls) [1] | less T cells relative to vehicle-only controls [2] [%] | more dead and infected monocytes relative to vehicle-only controls [2] [%] | percentage of T cells [2] | percentage of dead cells and infected monocytes [2] | outcome of screen ranked by immune aging score and COVID-19 cytokine score [3] | percentage of reticular T-cell mitochondria [4] | IL-1β level vs old untreated control PBMCs [5] | MCP1 level vs old untreated control PBMCs [5] | TNFα level vs old untreated control PBMCs [5] | T-cell age score / aging model readout vs old untreated controls [6] | patients who lowered their oxygen intake ([7]; 15 of 20 late stage COVID-19 patients) [%] | patients with lung lesion opacity absorbed on CT scans ([7]; 19 patients) [%] | fever after treatment ([7]; within a few days after treatment) |
| --- | --- | --- | --- | --- | --- | --- | --- | --- | --- | --- | --- | --- | --- | --- | --- |
| CC(C)[C@]12O[C@H]1[C@@H]1O[C@@]13[C@@]1(C)CCC4=C(COC4=O)[C@@H]1C[C@@H]1O[C@@]13C2=O [Triptonide] | significant | significantly shifted | 19 | 21 | decrease | significant increase | identified as a therapy with potential for rejuvenating the aging immune system | dose-dependent decrease | significant differences at one or more doses | significant, dose-dependent reduction | significant differences at one or more doses | from an older phenotype to a younger phenotype |  |  |  |
| Tocilizumab: IL-6 targeting therapy tested in late stage COVID-19 |  |  |  |  |  |  |  |  |  |  |  |  | 75.0 | 90.5 | returned to normal |
| COC(=O)/C=C/C(=O)OC [dimethyl fumarate, reference compound] |  | did not improve |  |  |  |  |  |  |  |  |  |  |  |  |  |

Source: patent US20230026789A1, “METHODS, SYSTEMS, AND TOOLS FOR LONGEVITY-RELATED APPLICATIONS” (SPRING DISCOVERY, INC., priority 2020, published 2023)
